The values that follow come from ChEMBL document CHEMBL5131391, “One-pot three-component synthesis of novel pyrazolo[3,4-b]pyridines as potent antileukemic agents” (Eur J Med Chem, 2022).

Holding throughout (assay type): functional
Assay [1] concerns HOP-92. Briefly: Antiproliferative activity against human HOP-92 cells assessed as growth inhibition at 10 uM measured after 48 hrs by NCI protocol based SRB assay relative to control. The conditions noted are these: read-out: GI. A general note: The SRB assay estimates cell density from bound dye.
Assay [2] deals with NCI-H460. Briefly: Antiproliferative activity against human NCI-H460 cells assessed as growth inhibition at 10 uM measured after 48 hrs by NCI protocol based SRB assay relative to control. The conditions noted are these: read-out: GI.
The subject of assay [3] is NCI-H522. Briefly: Antiproliferative activity against human NCI-H522 cells assessed as growth inhibition at 10 uM measured after 48 hrs by NCI protocol based SRB assay relative to control. The conditions noted are these: read-out: GI.
Assay [4] deals with COLO 205. Briefly: Antiproliferative activity against human COLO 205 cells assessed as growth inhibition at 10 uM measured after 48 hrs by NCI protocol based SRB assay relative to control. The conditions noted are these: read-out: GI.
The test system of assay [5] is KM12. In words: Antiproliferative activity against human KM12 cells assessed as growth inhibition at 10 uM measured after 48 hrs by NCI protocol based SRB assay relative to control. The following applies: read-out: GI.
The subject of assay [6] is SW-620. Briefly: Antiproliferative activity against human SW-620 cells assessed as growth inhibition at 10 uM measured after 48 hrs by NCI protocol based SRB assay relative to control. The following applies: read-out: GI.
For assay [7], the system named is SF-539. Briefly: Antiproliferative activity against human SF-539 cells assessed as growth inhibition at 10 uM measured after 48 hrs by NCI protocol based SRB assay relative to control. The conditions noted are these: read-out: GI.
Assay [8] concerns SNB-75. Briefly: Antiproliferative activity against human SNB-75 cells assessed as growth inhibition at 10 uM measured after 48 hrs by NCI protocol based SRB assay relative to control. The conditions noted are these: read-out: GI.
The subject of assay [9] is SNB-19. Briefly: Antiproliferative activity against human SNB-19 cells assessed as growth inhibition at 10 uM measured after 48 hrs by NCI protocol based SRB assay relative to control. The conditions noted are these: read-out: GI.
For assay [10], the system named is MDA-MB-435. In words: Antiproliferative activity against human MDA-MB-435 cells assessed as growth inhibition at 10 uM measured after 48 hrs by NCI protocol based SRB assay relative to control. The conditions noted are these: read-out: GI.
For assay [11], the system named is Malme-3M. Briefly: Antiproliferative activity against human Malme-3M cells assessed as growth inhibition at 10 uM measured after 48 hrs by NCI protocol based SRB assay relative to control. The conditions noted are these: read-out: GI.
Assay [12] has as its system SK-MEL-28. In words: Antiproliferative activity against human SK-MEL-28 cells assessed as growth inhibition at 10 uM measured after 48 hrs by NCI protocol based SRB assay relative to control. The following applies: read-out: GI.
In assay [13] the test system is OVCAR-8. Briefly: Antiproliferative activity against human OVCAR-8 cells assessed as growth inhibition at 10 uM measured after 48 hrs by NCI protocol based SRB assay relative to control. The following applies: read-out: GI.
Assay [14] relates to 786-0. Briefly: Antiproliferative activity against human 786-0 cells assessed as growth inhibition at 10 uM measured after 48 hrs by NCI protocol based SRB assay relative to control. The conditions noted are these: read-out: GI.
Assay [15] has as its system TK-10. Briefly: Antiproliferative activity against human TK-10 cells assessed as growth inhibition at 10 uM measured after 48 hrs by NCI protocol based SRB assay relative to control. The following applies: read-out: GI.
The test system of assay [16] is Hs-578T. Briefly: Antiproliferative activity against human Hs-578T cells assessed as growth inhibition at 10 uM measured after 48 hrs by NCI protocol based SRB assay relative to control. The following applies: read-out: GI.
Assay [17] has as its system CCRF-CEM. Briefly: Antiproliferative activity against human CEM cells assessed as reduction in cell viability incubated for 72 hrs by resazurin dye based assay. In general terms: Resazurin is reduced to fluorescent resorufin, in cell work by metabolically active cells.
Assay [18] concerns ML-2. In words: Antiproliferative activity against human ML-2 cells assessed as reduction in cell viability incubated for 72 hrs by resazurin dye based assay. The conditions noted are these: ML-2, 72 h.
For assay [19], the system named is RS4-11. In words: Antiproliferative activity against human RS4-11 cells assessed as reduction in cell viability incubated for 72 hrs by resazurin dye based assay. The following applies: RS4-11, 72 h.
Assay [20] has as its system HL-60(TB). In words: Antiproliferative activity against human HL-60(TB) cells assessed as growth inhibition at 10 uM measured after 48 hrs by NCI protocol based SRB assay relative to control. The conditions noted are these: read-out: GI.
For assay [21], the system named is K562. In words: Antiproliferative activity against human K562 cells assessed as growth inhibition at 10 uM measured after 48 hrs by NCI protocol based SRB assay relative to control. The conditions noted are these: read-out: GI.
Assay [22] relates to HT-29. In words: Antiproliferative activity against human HT-29 cells assessed as growth inhibition at 10 uM measured after 48 hrs by NCI protocol based SRB assay relative to control. The following applies: read-out: GI.
The subject of assay [23] is SK-MEL-2. In words: Antiproliferative activity against human SK-MEL-2 cells assessed as growth inhibition at 10 uM measured after 48 hrs by NCI protocol based SRB assay relative to control. The conditions noted are these: read-out: GI.
Assay [24] has as its system SK-OV-3. Briefly: Antiproliferative activity against human SK-OV-3 cells assessed as growth inhibition at 10 uM measured after 48 hrs by NCI protocol based SRB assay relative to control. The conditions noted are these: read-out: GI.
Assay [25] relates to BT-549. In words: Antiproliferative activity against human BT-549 cells assessed as growth inhibition at 10 uM measured after 48 hrs by NCI protocol based SRB assay relative to control. The following applies: read-out: GI.
For assay [26], the system named is KOPN-8. In words: Antiproliferative activity against human KOPN-8 cells assessed as reduction in cell viability incubated for 72 hrs by resazurin dye based assay. The conditions noted are these: KOPN-8, 72 h.
In assay [27] the test system is A498. Briefly: Antiproliferative activity against human A498 cells assessed as growth inhibition at 10 uM measured after 48 hrs by NCI protocol based SRB assay relative to control. The conditions noted are these: read-out: GI.
The test system of assay [28] is HCC 2998. In words: Antiproliferative activity against human HCC 2998 cells assessed as growth inhibition at 10 uM measured after 48 hrs by NCI protocol based SRB assay relative to control. The following applies: read-out: GI.
For assay [29], the system named is OVCAR-5. Briefly: Antiproliferative activity against human OVCAR-5 cells assessed as growth inhibition at 10 uM measured after 48 hrs by NCI protocol based SRB assay relative to control. The following applies: read-out: GI.

On to `COc1cc(-c2c(C#N)c(-c3ccccc3)nc3c2c(-c2ccccc2)nn3-c2ccccc2)ccc1O`, for which the inhibition of growth at 10 µM in assay [1] amounted to 22%; in assay [2], 38%; in assay [3], 47%; in assay [4], 23%; in assay [5] it was 35%; in assay [6], 22%. In addition, the inhibition of growth at 10 µM was determined as 18% in assay [7]; 20% in assay [8]; 24% in [9]; 32% in [10]; 43% in assay [11]; 19% in assay [12]. Besides, the inhibition of growth at 10 µM in assay [13] turned out to be 28%; in assay [14], 24%; in assay [15], 42%; in assay [16], 32%. Further, in [17], the IC50 (commonly the point on the concentration scale where inhibition reaches its midpoint) was greater than 50 µM.
For the compound `N#Cc1c(-c2ccco2)nc2c(c(-c3ccccc3)nn2-c2ccccc2)c1-c1ccc(O)cc1`, the 50% inhibitory concentration (IC50) in [18] was determined as 12.8 µM; in assay [19], 15.1 µM; in assay [17], 23.9 µM; in assay [26] it was 10 µM. Besides, the inhibition of growth at 10 µM was determined as 78% in assay [20]; 85% in assay [21]; 24% in assay [1]; 51% in assay [2]; 81% in assay [3]; 97% in assay [4]. For the same compound, the inhibition of growth at 10 µM in [5] stood at 58%; in [6], 53%; in assay [22] it was 70%; in assay [7], 18%; in assay [8], 29%; in [10], 38%. For the same compound, the inhibition of growth at 10 µM in assay [11] came to 66%; in assay [23] it was 30%; in [12], 24%; in [13], 45%; in [24], 54%; in assay [14], 41%. Besides, the inhibition of growth at 10 µM in [15] was determined as 11%; in [25], 36%; in assay [16], 47%.
For `Cc1ccc(-c2nc3c(c(-c4ccccc4)nn3-c3ccccc3)c(-c3ccc(O)cc3)c2C#N)cc1`, the half-maximal inhibitory concentration (IC50) came out at 1.4 µM in assay [18], 2.7 µM in [19], 13.4 µM in [17] and 0.3 µM in assay [26]. Further, the inhibition of growth at 10 µM in assay [20] came out at 68%; in assay [21] it was 78%; in assay [1], 26%; in assay [2], 73%; in assay [3], 31%; in assay [4], 30%. For the same compound, the inhibition of growth at 10 µM in [5] was determined as 45%; in [6], 38%; in [7], 85%; in assay [8] it was 60%; in [9], 31%; in assay [10] it was 36%. Besides, the inhibition of growth at 10 µM in assay [11] was 25%; in assay [23], 22%; in assay [12], 33%; in assay [13] it was 31%; in [14], 82%; in assay [27] it was 56%. Also, the figures for the inhibition of growth at 10 µM in assay [15], in assay [25] and in assay [16] were 62%, 24% and 77%, respectively.
Turning to `N#Cc1c(-c2ccc(Cl)cc2)nc2c(c(-c3ccccc3)nn2-c2ccccc2)c1-c1ccc(O)cc1`, the inhibition of growth at 10 µM was 68% in assay [20]; 92% in [21]; 44% in assay [1]; 75% in assay [2]; 45% in assay [3]; 48% in [4]. In addition, the inhibition of growth at 10 µM in assay [5] is 59%; in assay [6] it was 46%; in assay [28] it was 16%; in assay [7], 89%; in [8] it was 58%; in assay [9] it was 35%. Further, the inhibition of growth at 10 µM in assay [10] was found to be 52%; in assay [11], 39%; in assay [23], 26%; in assay [12], 44%; in [29] it was 17%; in assay [13] it was 51%. Further, the inhibition of growth at 10 µM turned out to be 83% in [14]; 21% in assay [27]; 83% in assay [15]; 38% in assay [25]; 74% in [16]. Besides, the half-inhibitory concentration (IC50) in assay [17] was determined as 43.1 µM.
